{
  "source": "patent US20260022142A1",
  "about": "“MACROCYCLIC IMMUNOMODULATORS” (Bristol-Myers Squibb Company, priority 2022, published 2026)",
  "note": "Bridge positions count the residues as written; N and C are the ends. Square brackets hold non-standard residues; d marks the D form. Peptide text beside a SMILES is read from it. * marks the point of attachment. Bip = N[C@@H](Cc1ccc(-c2ccccc2)cc1)C(=O)O; NH(CH2)14COOH = O=C(O)CCCCCCCCCCCCCCN*; Phe(3-Me) = Cc1cccc(C[C@H](N)C(=O)O)c1; NH(CH2)12COOH = O=C(O)CCCCCCCCCCCCN*; Val(3-OH) = CC(C)(O)[C@H](N)C(=O)O; hPhe = N[C@@H](CCc1ccccc1)C(=O)O; 4Pal = N[C@@H](Cc1ccncc1)C(=O)O; Cha = N[C@@H](CC1CCCCC1)C(=O)O; Cba = N[C@@H](CC1CCC1)C(=O)O; hSer = N[C@@H](CCO)C(=O)O; Carboxymethyl = O=C(O)C*; Orn = NCCC[C@H](N)C(=O)O; Aun = NCCCCCCCCCCC(=O)O; Dab = NCC[C@H](N)C(=O)O; Nva = CCC[C@H](N)C(=O)O; Dap = NC[C@H](N)C(=O)O",
  "data": [
    {"target": "T1, PD-1/PD-L1 interaction (PE-labeled human PD-L1-Ig binding to Jurkat cell line over-expressing human PD-1) (Homo sapiens, UniProt Q15116)", "T1 construct": "expressed in transfected cells; host or cells: Jurkat", "T1 sequence (Q15116 25-288)": "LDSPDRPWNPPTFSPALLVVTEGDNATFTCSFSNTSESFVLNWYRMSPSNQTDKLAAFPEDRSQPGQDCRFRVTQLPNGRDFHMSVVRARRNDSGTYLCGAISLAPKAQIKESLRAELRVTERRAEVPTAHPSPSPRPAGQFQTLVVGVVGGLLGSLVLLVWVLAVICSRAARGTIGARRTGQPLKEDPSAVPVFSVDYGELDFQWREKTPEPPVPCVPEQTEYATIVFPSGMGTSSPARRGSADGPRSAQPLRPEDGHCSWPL", "assay": "Jurkat-PD-1 Cell Binding High-Content Screening Assay (CBA)", "type": "cell-based", "settings": "Jurkat cell line over-expressing human PD-1; PE-labeled PD-L1-Ig 20 nM final; read-out: Jurkat hPD1-PDL1 IC50", "outline": "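Jurkat-hPD-1 cells, DMEM/10% FCS; cpd 2 h 37° C; PE-PD-L1-Ig 20 nM final, 1 h; 4% PFA fix + Hoechst 33342, 3× dPBS wash; high-content imaging read-out.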", "units": {"IC50": "nM"}, "values": [
      {"smiles": "Cc1cccc(C[C@@H]2NC(=O)[C@H](CC(=O)O)NC(=O)[C@H](Cc3ccc(OCC(=O)O)cc3)NC(=O)[C@H](CC(N)=O)NC(=O)CSC[C@@H](C(=O)N[C@@H](CCN)C(=O)NCCCCCCCCCCC(=O)O)NC(=O)[C@H](CO)NC(=O)[C@H](C(C)(C)O)NC(=O)[C@H](CC3CCCCC3)NC(=O)[C@H](CCN)NC(=O)[C@@H](CC(C)C)NC(=O)[C@H](CCCN)NC(=O)[C@H](Cc3ccc(OCC(=O)O)cc3)NC(=O)[C@H](Cc3ccc(-c4ccccc4)cc3)NC(=O)[C@H](Cc3ccc(OCC(=O)O)cc3)NC2=O)c1", "note": "[Compound 2220] ({CH2CO}-NY(Carboxymethyl)D[Phe(3-Me)]Y(Carboxymethyl)[Bip]Y(Carboxymethyl)[Orn][dL][Dab][Cha][Val(3-OH)]SC[Dab][Aun]-OH; thioether N-14)", "IC50": 12.3},
      {"smiles": "Cc1cccc(C[C@@H]2NC(=O)[C@H](CC(=O)O)NC(=O)[C@H](Cc3ccc(OCC(=O)O)cc3)NC(=O)[C@H](CN)NC(=O)CSC[C@@H](C(=O)N[C@@H](CCN)C(=O)NCCCCCCCCCCCCC(=O)O)NC(=O)[C@H](CO)NC(=O)[C@H](C(C)(C)O)NC(=O)[C@H](CC3CCCCC3)NC(=O)[C@H](CCN)NC(=O)[C@@H](CC(C)C)NC(=O)[C@H](CCCN)NC(=O)[C@H](Cc3ccc(OCC(=O)O)cc3)NC(=O)[C@H](Cc3ccc(-c4ccccc4)cc3)NC(=O)[C@H](Cc3ccc(OCC(=O)O)cc3)NC2=O)c1", "note": "[Compound 2222] ({CH2CO}-[Dap]Y(Carboxymethyl)D[Phe(3-Me)]Y(Carboxymethyl)[Bip]Y(Carboxymethyl)[Orn][dL][Dab][Cha][Val(3-OH)]SC[Dab]-{NH(CH2)12COOH}; thioether N-14)", "IC50": 17.6},
      {"smiles": "Cc1cccc(C[C@@H]2NC(=O)[C@H](CC(=O)O)NC(=O)[C@H](Cc3ccc(OCC(=O)O)cc3)NC(=O)[C@H](CN)NC(=O)CSC[C@@H](C(=O)N[C@@H](CCN)C(=O)NCCCCCCCCCCCCCCC(=O)O)NC(=O)[C@H](CO)NC(=O)[C@H](C(C)(C)O)NC(=O)[C@H](CC3CCCCC3)NC(=O)[C@H](CCN)NC(=O)[C@@H](CC(C)C)NC(=O)[C@H](CCCN)NC(=O)[C@H](Cc3ccc(OCC(=O)O)cc3)NC(=O)[C@H](Cc3ccc(-c4ccccc4)cc3)NC(=O)[C@H](Cc3ccc(OCC(=O)O)cc3)NC2=O)c1", "note": "[Compound 2223] ({CH2CO}-[Dap]Y(Carboxymethyl)D[Phe(3-Me)]Y(Carboxymethyl)[Bip]Y(Carboxymethyl)[Orn][dL][Dab][Cha][Val(3-OH)]SC[Dab]-{NH(CH2)14COOH}; thioether N-14)", "IC50": 280},
      {"smiles": "Cc1cccc(C[C@@H]2NC(=O)[C@H](CC(=O)O)NC(=O)[C@H](Cc3ccc(OCC(=O)O)cc3)NC(=O)[C@H](Cc3ccncc3)NC(=O)CSC[C@@H](C(=O)N[C@@H](CCN)C(=O)NCCCCCCCCCCCCC(=O)O)NC(=O)[C@H](CO)NC(=O)[C@H](C(C)(C)O)NC(=O)[C@H](CC3CCCCC3)NC(=O)[C@H](CCN)NC(=O)[C@@H](CC(C)C)NC(=O)[C@H](CCCN)NC(=O)[C@H](Cc3ccc(OCC(=O)O)cc3)NC(=O)[C@H](Cc3ccc(-c4ccccc4)cc3)NC(=O)[C@H](Cc3ccc(OCC(=O)O)cc3)NC2=O)c1", "note": "[Compound 2224] ({CH2CO}-[4Pal]Y(Carboxymethyl)D[Phe(3-Me)]Y(Carboxymethyl)[Bip]Y(Carboxymethyl)[Orn][dL][Dab][Cha][Val(3-OH)]SC[Dab]-{NH(CH2)12COOH}; thioether N-14)", "IC50": 26.2},
      {"smiles": "CCC[C@@H]1NC(=O)CSC[C@@H](C(=O)N[C@@H](CCN)C(=O)NCCCCCCCCCCCCC(=O)O)NC(=O)[C@H](CO)NC(=O)[C@H](C(C)(C)O)NC(=O)[C@H](CC2CCCCC2)NC(=O)[C@H](CCN)NC(=O)[C@@H](CC(C)C)NC(=O)[C@H](CCCN)NC(=O)[C@H](Cc2ccc(OCC(=O)O)cc2)NC(=O)[C@H](Cc2ccc(-c3ccccc3)cc2)NC(=O)[C@H](Cc2ccc(OCC(=O)O)cc2)NC(=O)[C@H](Cc2cccc(C)c2)NC(=O)[C@H](CC(=O)O)NC(=O)[C@H](Cc2ccc(OCC(=O)O)cc2)NC1=O", "note": "[Compound 2226] ({CH2CO}-[Nva]Y(Carboxymethyl)D[Phe(3-Me)]Y(Carboxymethyl)[Bip]Y(Carboxymethyl)[Orn][dL][Dab][Cha][Val(3-OH)]SC[Dab]-{NH(CH2)12COOH}; thioether N-14)", "IC50": 27.8},
      {"smiles": "Cc1cccc(C[C@@H]2NC(=O)[C@H](CC(=O)O)NC(=O)[C@H](Cc3ccc(OCC(=O)O)cc3)NC(=O)[C@H](Cc3ccncc3)NC(=O)CSC[C@@H](C(=O)N[C@@H](CCN)C(=O)NCCCCCCCCCCCCCCC(=O)O)NC(=O)[C@H](CO)NC(=O)[C@H](C(C)(C)O)NC(=O)[C@H](CC3CCCCC3)NC(=O)[C@H](CCN)NC(=O)[C@@H](CC(C)C)NC(=O)[C@H](CCCN)NC(=O)[C@H](Cc3ccc(OCC(=O)O)cc3)NC(=O)[C@H](Cc3ccc(-c4ccccc4)cc3)NC(=O)[C@H](Cc3ccc(OCC(=O)O)cc3)NC2=O)c1", "note": "[Compound 2227] ({CH2CO}-[4Pal]Y(Carboxymethyl)D[Phe(3-Me)]Y(Carboxymethyl)[Bip]Y(Carboxymethyl)[Orn][dL][Dab][Cha][Val(3-OH)]SC[Dab]-{NH(CH2)14COOH}; thioether N-14)", "IC50": 204},
      {"smiles": "Cc1cccc(C[C@@H]2NC(=O)[C@H](CC(=O)O)NC(=O)[C@H](Cc3ccc(OCC(=O)O)cc3)NC(=O)[C@H](CCCNC(=N)N)NC(=O)CSC[C@@H](C(=O)N[C@@H](CCN)C(=O)NCCCCCCCCCCCCCCC(=O)O)NC(=O)[C@H](CO)NC(=O)[C@H](C(C)(C)O)NC(=O)[C@H](CC3CCCCC3)NC(=O)[C@H](CCN)NC(=O)[C@@H](CC(C)C)NC(=O)[C@H](CCCN)NC(=O)[C@H](Cc3ccc(OCC(=O)O)cc3)NC(=O)[C@H](Cc3ccc(-c4ccccc4)cc3)NC(=O)[C@H](Cc3ccc(OCC(=O)O)cc3)NC2=O)c1", "note": "[Compound 2228] ({CH2CO}-RY(Carboxymethyl)D[Phe(3-Me)]Y(Carboxymethyl)[Bip]Y(Carboxymethyl)[Orn][dL][Dab][Cha][Val(3-OH)]SC[Dab]-{NH(CH2)14COOH}; thioether N-14)", "IC50": 78.1},
      {"smiles": "COc1ccc(C[C@@H]2NC(=O)[C@H](Cc3cccc(C)c3)NC(=O)[C@H](CC(=O)O)NC(=O)[C@H](Cc3ccc(OCC(=O)O)cc3)NC(=O)[C@H](Cc3ccncc3)NC(=O)CSC[C@@H](C(=O)N[C@@H](CCN)C(=O)NCCCCCCCCCCC(=O)O)NC(=O)[C@H](CO)NC(=O)[C@H](C(C)(C)O)NC(=O)[C@H](CC3CCCCC3)NC(=O)[C@H](CCN)NC(=O)[C@@H](CC(C)C)NC(=O)[C@H](CCCN)NC(=O)[C@H](Cc3ccc(OCC(=O)O)cc3)NC(=O)[C@H](Cc3ccc(-c4ccccc4)cc3)NC2=O)cc1", "note": "[Compound 2229] ({CH2CO}-[4Pal]Y(Carboxymethyl)D[Phe(3-Me)]Y(Me)[Bip]Y(Carboxymethyl)[Orn][dL][Dab][Cha][Val(3-OH)]SC[Dab][Aun]-OH; thioether N-14)", "IC50": 0.6},
      {"smiles": "Cc1cccc(C[C@@H]2NC(=O)[C@H](CC(=O)O)NC(=O)[C@H](Cc3ccc(OCC(=O)O)cc3)NC(=O)[C@H](CCO)NC(=O)CSC[C@@H](C(=O)N[C@@H](CCN)C(=O)NCCCCCCCCCCC(=O)O)NC(=O)[C@H](CO)NC(=O)[C@H](C(C)(C)O)NC(=O)[C@H](CC3CCCCC3)NC(=O)[C@H](CCN)NC(=O)[C@@H](CC(C)C)NC(=O)[C@H](CCCN)NC(=O)[C@H](Cc3ccc(OCC(=O)O)cc3)NC(=O)[C@H](Cc3ccc(-c4ccccc4)cc3)NC(=O)[C@H](Cc3ccc(OCC(=O)O)cc3)NC2=O)c1", "note": "[Compound 2230] ({CH2CO}-[hSer]Y(Carboxymethyl)D[Phe(3-Me)]Y(Carboxymethyl)[Bip]Y(Carboxymethyl)[Orn][dL][Dab][Cha][Val(3-OH)]SC[Dab][Aun]-OH; thioether N-14)", "IC50": 2.2},
      {"smiles": "Cc1cccc(C[C@@H]2NC(=O)[C@H](CC(=O)O)NC(=O)[C@H](Cc3ccc(OCC(=O)O)cc3)NC(=O)[C@H](CCc3ccccc3)NC(=O)CSC[C@@H](C(=O)N[C@@H](CCN)C(=O)NCCCCCCCCCCC(=O)O)NC(=O)[C@H](CO)NC(=O)[C@H](C(C)(C)O)NC(=O)[C@H](CC3CCCCC3)NC(=O)[C@H](CCN)NC(=O)[C@@H](CC(C)C)NC(=O)[C@H](CCCN)NC(=O)[C@H](Cc3ccc(OCC(=O)O)cc3)NC(=O)[C@H](Cc3ccc(-c4ccccc4)cc3)NC(=O)[C@H](Cc3ccc(OCC(=O)O)cc3)NC2=O)c1", "note": "[Compound 2231] ({CH2CO}-[hPhe]Y(Carboxymethyl)D[Phe(3-Me)]Y(Carboxymethyl)[Bip]Y(Carboxymethyl)[Orn][dL][Dab][Cha][Val(3-OH)]SC[Dab][Aun]-OH; thioether N-14)", "IC50": 15.2},
      {"smiles": "Cc1cccc(C[C@@H]2NC(=O)[C@H](CC(=O)O)NC(=O)[C@H](Cc3ccc(OCC(=O)O)cc3)NC(=O)[C@@H](CCCNC(=N)N)NC(=O)CSC[C@@H](C(=O)N[C@@H](CCN)C(=O)NCCCCCCCCCCC(=O)O)NC(=O)[C@H](CO)NC(=O)[C@H](C(C)(C)O)NC(=O)[C@H](CC3CCCCC3)NC(=O)[C@H](CCN)NC(=O)[C@@H](CC(C)C)NC(=O)[C@H](CCCN)NC(=O)[C@H](Cc3ccc(OCC(=O)O)cc3)NC(=O)[C@H](Cc3ccc(-c4ccccc4)cc3)NC(=O)[C@H](Cc3ccc(OCC(=O)O)cc3)NC2=O)c1", "note": "[Compound 2232] ({CH2CO}-[dR]Y(Carboxymethyl)D[Phe(3-Me)]Y(Carboxymethyl)[Bip]Y(Carboxymethyl)[Orn][dL][Dab][Cha][Val(3-OH)]SC[Dab][Aun]-OH; thioether N-14)", "IC50": 238},
      {"smiles": "Cc1cccc(C[C@@H]2NC(=O)[C@H](CC(=O)O)NC(=O)[C@H](Cc3ccc(OCC(=O)O)cc3)NC(=O)[C@H](CC3CCC3)NC(=O)CSC[C@@H](C(=O)N[C@@H](CCN)C(=O)NCCCCCCCCCCC(=O)O)NC(=O)[C@H](CO)NC(=O)[C@H](C(C)(C)O)NC(=O)[C@H](CC3CCCCC3)NC(=O)[C@H](CCN)NC(=O)[C@@H](CC(C)C)NC(=O)[C@H](CCCN)NC(=O)[C@H](Cc3ccc(OCC(=O)O)cc3)NC(=O)[C@H](Cc3ccc(-c4ccccc4)cc3)NC(=O)[C@H](Cc3ccc(OCC(=O)O)cc3)NC2=O)c1", "note": "[Compound 2233] ({CH2CO}-[Cba]Y(Carboxymethyl)D[Phe(3-Me)]Y(Carboxymethyl)[Bip]Y(Carboxymethyl)[Orn][dL][Dab][Cha][Val(3-OH)]SC[Dab][Aun]-OH; thioether N-14)", "IC50": 5}
    ]}
  ]
}
